# Data: patent US20100137449A1, “SUBSTITUTED 1,3-CYCLOPENTADIONE MULTI-TARGET PROTEIN KINASE MODULATORS OF CANCER, ANGIOGENESIS AND THE INFLAMMATORY PATHWAYS ASSOCIATED THEREWITH” (METAPROTEOMICS, LLC, priority 2007, published 2010)
# How the values were obtained:
# Assay in all cases: KinaseProfiler Assay
# PKCα(h) = PKCα(h) (Homo sapiens, UniProt P17252)
# ZAP-70(h) = biological target: T1, ZAP-70(h) (Homo sapiens, UniProt P43403)
# T1 sequence (P43403 1-619): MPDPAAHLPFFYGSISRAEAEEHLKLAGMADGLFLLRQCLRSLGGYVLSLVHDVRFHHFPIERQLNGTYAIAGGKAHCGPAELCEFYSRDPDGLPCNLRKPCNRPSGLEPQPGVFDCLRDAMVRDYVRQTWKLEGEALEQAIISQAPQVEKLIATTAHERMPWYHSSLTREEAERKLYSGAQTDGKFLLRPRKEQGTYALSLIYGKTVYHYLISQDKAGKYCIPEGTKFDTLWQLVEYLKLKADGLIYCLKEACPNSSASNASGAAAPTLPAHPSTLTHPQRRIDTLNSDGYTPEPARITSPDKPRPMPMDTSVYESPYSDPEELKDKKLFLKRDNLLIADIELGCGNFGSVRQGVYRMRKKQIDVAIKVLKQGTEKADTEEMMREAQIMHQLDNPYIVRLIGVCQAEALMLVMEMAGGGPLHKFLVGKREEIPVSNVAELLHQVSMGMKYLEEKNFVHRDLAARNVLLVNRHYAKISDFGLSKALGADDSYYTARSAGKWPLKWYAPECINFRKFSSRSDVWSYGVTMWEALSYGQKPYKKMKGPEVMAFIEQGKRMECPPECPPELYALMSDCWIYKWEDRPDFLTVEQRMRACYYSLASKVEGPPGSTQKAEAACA
# Hck(h) = Hck(h) (Homo sapiens, UniProt P08631)
# Chain of Hck(h) (P08631 whole entry): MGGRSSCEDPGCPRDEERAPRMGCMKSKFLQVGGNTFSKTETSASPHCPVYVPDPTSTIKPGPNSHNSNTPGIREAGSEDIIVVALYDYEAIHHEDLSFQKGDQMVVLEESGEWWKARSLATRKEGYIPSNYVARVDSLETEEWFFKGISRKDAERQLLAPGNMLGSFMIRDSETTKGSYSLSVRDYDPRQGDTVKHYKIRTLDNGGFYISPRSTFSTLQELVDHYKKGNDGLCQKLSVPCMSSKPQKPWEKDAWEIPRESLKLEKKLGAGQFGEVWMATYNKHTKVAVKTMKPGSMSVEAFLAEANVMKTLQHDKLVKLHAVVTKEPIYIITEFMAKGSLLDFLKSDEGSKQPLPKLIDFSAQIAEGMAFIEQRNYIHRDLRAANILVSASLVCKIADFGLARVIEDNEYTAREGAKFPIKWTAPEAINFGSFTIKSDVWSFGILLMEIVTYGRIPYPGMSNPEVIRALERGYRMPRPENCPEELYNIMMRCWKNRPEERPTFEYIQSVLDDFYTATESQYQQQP
# ALK(h) = ALK(h) (Homo sapiens, UniProt Q9UM73)
# ACK1(h) = ACK1(h) (Homo sapiens, UniProt Q07912)
# Chain of ACK1(h) (Q07912 whole entry): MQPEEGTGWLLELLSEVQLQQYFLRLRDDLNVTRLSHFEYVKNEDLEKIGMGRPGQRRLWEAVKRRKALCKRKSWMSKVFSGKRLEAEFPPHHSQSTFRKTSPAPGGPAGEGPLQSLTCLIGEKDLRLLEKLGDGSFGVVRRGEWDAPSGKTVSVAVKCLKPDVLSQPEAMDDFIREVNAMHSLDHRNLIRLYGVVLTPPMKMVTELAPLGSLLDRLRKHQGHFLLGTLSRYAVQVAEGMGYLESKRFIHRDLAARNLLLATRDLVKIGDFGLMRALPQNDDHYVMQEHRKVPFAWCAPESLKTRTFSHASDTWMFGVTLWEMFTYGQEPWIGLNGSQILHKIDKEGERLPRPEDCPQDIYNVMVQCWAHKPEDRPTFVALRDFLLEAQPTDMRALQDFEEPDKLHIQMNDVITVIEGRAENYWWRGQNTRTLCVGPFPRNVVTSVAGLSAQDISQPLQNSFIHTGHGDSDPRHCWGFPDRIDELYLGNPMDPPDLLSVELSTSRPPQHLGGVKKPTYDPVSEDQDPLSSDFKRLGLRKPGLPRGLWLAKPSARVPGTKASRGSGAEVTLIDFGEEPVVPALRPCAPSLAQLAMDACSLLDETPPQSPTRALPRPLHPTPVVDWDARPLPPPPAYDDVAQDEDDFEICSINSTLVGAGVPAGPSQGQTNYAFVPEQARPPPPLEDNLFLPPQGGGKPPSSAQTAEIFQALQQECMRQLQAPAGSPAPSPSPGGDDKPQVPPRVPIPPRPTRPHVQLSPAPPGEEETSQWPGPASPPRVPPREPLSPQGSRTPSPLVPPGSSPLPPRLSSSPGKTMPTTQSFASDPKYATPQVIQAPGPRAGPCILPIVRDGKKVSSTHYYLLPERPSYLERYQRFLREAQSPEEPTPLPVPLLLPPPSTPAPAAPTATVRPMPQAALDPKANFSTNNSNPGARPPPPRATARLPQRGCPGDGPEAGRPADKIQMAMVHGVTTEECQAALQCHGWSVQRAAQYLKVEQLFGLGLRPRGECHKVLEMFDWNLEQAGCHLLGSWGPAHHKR
# Bmx(h) = biological target: T2, Bmx(h) (Homo sapiens, UniProt P51813)
# T2 sequence (P51813 1-675): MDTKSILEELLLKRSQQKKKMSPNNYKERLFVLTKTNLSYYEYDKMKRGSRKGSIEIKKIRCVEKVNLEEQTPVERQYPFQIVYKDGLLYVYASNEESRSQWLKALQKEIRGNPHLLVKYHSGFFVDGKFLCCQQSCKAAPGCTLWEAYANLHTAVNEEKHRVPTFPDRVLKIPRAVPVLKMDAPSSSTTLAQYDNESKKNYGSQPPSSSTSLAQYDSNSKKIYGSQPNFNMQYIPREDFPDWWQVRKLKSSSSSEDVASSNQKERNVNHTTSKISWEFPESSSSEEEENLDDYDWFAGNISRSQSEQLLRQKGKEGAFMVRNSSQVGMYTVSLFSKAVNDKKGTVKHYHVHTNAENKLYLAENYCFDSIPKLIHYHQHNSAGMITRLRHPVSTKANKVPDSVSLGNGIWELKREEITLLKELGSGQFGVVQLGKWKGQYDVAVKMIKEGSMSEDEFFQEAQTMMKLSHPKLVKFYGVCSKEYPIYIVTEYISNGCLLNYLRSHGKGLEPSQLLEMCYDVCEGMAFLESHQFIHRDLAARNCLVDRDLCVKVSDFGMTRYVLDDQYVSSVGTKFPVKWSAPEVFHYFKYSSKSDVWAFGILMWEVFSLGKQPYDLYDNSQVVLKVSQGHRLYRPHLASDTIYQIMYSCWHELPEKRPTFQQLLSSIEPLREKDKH
# Ret(V804L)(h) = Ret(V804L)(h) (Homo sapiens, UniProt P07949, V804L)
# Chain of Ret(V804L)(h) (P07949 29-1114 V804L): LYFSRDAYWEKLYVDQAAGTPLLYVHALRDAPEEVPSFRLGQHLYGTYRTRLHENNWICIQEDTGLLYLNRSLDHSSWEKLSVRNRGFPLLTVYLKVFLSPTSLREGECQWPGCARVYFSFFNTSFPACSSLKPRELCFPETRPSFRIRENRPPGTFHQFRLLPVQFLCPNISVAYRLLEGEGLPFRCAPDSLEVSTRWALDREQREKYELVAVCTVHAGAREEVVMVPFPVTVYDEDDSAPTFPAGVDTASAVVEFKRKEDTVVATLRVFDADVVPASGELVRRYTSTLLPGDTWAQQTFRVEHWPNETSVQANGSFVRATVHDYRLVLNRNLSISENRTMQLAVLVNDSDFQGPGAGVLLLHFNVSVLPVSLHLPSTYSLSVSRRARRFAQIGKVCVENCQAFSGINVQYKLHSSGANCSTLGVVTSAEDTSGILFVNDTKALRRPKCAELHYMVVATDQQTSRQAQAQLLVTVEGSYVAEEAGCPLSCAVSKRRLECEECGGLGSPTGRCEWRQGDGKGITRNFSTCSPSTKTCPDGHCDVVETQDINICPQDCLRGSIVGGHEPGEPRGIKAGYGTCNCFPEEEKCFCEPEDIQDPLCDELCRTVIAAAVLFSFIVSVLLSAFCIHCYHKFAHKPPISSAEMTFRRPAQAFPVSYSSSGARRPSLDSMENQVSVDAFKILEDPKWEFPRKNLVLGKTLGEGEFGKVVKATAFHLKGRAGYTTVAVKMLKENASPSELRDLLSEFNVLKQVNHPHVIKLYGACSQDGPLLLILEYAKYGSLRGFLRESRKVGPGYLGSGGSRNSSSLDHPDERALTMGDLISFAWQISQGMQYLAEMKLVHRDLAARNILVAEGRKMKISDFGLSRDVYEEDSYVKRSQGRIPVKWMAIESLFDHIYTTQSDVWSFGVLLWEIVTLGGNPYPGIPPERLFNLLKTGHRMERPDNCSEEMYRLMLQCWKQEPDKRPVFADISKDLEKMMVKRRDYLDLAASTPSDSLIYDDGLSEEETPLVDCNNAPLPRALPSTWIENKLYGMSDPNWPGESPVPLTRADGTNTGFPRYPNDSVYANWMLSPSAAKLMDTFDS
# SRPK2(h) = SRPK2(h) (Homo sapiens, UniProt P78362)
# Chain of SRPK2(h) (P78362 whole entry): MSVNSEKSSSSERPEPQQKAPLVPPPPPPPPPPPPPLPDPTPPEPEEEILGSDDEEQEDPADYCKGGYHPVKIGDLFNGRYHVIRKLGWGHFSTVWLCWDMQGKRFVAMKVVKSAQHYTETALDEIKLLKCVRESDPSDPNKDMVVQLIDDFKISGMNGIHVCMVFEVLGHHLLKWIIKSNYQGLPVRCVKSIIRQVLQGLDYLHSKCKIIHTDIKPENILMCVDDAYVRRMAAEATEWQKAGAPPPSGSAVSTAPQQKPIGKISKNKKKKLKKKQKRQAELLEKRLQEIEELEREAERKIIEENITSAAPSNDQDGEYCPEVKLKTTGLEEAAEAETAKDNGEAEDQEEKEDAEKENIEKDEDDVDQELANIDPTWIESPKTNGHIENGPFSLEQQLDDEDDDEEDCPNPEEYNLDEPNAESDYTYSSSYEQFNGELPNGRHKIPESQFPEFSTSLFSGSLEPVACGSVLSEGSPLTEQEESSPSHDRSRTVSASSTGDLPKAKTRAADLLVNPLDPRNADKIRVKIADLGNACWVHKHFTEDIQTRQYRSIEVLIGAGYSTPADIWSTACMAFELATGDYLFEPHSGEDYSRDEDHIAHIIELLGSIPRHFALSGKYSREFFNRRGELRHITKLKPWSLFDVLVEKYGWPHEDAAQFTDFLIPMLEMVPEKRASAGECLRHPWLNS
# CDK5/p25(h) = CDK5/p25(h) (Homo sapiens, UniProt Q00535)
# PKBβ(h) = PKBβ(h) (Homo sapiens, UniProt P31751)
# Chain of PKBβ(h) (P31751 whole entry): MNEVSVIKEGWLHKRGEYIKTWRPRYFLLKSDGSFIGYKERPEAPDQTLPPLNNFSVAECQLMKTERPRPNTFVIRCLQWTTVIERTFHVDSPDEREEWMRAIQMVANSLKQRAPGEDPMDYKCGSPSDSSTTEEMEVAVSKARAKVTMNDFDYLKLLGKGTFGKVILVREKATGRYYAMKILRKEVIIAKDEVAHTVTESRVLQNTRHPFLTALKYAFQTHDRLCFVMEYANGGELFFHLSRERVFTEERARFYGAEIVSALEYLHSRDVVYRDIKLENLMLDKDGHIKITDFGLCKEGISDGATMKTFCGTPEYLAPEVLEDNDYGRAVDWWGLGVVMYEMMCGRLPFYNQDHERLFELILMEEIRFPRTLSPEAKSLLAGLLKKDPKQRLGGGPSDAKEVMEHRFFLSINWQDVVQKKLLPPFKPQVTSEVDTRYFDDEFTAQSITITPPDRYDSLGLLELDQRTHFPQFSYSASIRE
# Lck(h) = Lck(h) (Homo sapiens, UniProt P06239)
# Chain of Lck(h) (P06239 whole entry): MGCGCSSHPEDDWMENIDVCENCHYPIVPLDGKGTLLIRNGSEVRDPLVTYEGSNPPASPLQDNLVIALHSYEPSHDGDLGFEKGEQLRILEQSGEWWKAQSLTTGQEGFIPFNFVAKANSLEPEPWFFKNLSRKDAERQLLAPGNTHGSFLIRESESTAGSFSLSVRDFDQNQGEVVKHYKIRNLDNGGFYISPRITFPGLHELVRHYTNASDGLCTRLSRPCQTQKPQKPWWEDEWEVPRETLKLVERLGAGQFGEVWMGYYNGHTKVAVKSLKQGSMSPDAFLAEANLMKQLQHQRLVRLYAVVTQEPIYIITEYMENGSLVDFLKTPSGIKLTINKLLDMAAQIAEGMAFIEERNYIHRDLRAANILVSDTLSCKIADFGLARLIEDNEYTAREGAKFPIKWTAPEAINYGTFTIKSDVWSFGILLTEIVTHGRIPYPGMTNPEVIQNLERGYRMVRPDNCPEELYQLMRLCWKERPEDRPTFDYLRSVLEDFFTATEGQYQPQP
compound,measurement,setting,value
"CC(C)CCC(=O)[C@]1(O)C(O)=C(C(=O)C(C)C)C(=O)[C@H]1CCC(C)C [TH2, tetrahydroiso-cohumulone]",kinase inhibition,PKCα(h); 1 μg/ml,103% of control
same,kinase inhibition,PKCα(h); 5 μg/ml,99% of control
same,kinase inhibition,PKCα(h); 25 μg/ml,98% of control
same,kinase inhibition,PKCα(h); 50 μg/ml,98% of control
same,kinase inhibition,PKCα(h); 100 μg/ml,71% of control
same,kinase inhibition,ZAP-70(h); 1 μg/ml,125% of control
same,kinase inhibition,ZAP-70(h); 5 μg/ml,110% of control
same,kinase inhibition,ZAP-70(h); 25 μg/ml,124% of control
same,kinase inhibition,ZAP-70(h); 50 μg/ml,124% of control
same,kinase inhibition,ZAP-70(h); 100 μg/ml,107% of control
same,kinase inhibition,Hck(h); 1 μg/ml,103% of control
same,kinase inhibition,Hck(h); 5 μg/ml,88% of control
same,kinase inhibition,Hck(h); 25 μg/ml,76% of control
same,kinase inhibition,Hck(h); 50 μg/ml,62% of control
same,kinase inhibition,Hck(h); 100 μg/ml,42% of control
same,kinase inhibition,ALK(h); 1 μg/ml,80% of control
same,kinase inhibition,ALK(h); 5 μg/ml,59% of control
same,kinase inhibition,ALK(h); 25 μg/ml,21% of control
same,kinase inhibition,ALK(h); 50 μg/ml,21% of control
same,kinase inhibition,ALK(h); 100 μg/ml,23% of control
same,kinase inhibition,ACK1(h); 1 μg/ml,117% of control
same,kinase inhibition,ACK1(h); 5 μg/ml,124% of control
same,kinase inhibition,ACK1(h); 25 μg/ml,97% of control
same,kinase inhibition,ACK1(h); 50 μg/ml,86% of control
same,kinase inhibition,ACK1(h); 100 μg/ml,81% of control
same,kinase inhibition,Bmx(h); 1 μg/ml,88% of control
same,kinase inhibition,Bmx(h); 5 μg/ml,90% of control
same,kinase inhibition,Bmx(h); 25 μg/ml,89% of control
same,kinase inhibition,Bmx(h); 50 μg/ml,79% of control
same,kinase inhibition,Bmx(h); 100 μg/ml,61% of control
same,kinase inhibition,Ret(V804L)(h); 1 μg/ml,110% of control
same,kinase inhibition,Ret(V804L)(h); 5 μg/ml,103% of control
same,kinase inhibition,Ret(V804L)(h); 25 μg/ml,91% of control
same,kinase inhibition,Ret(V804L)(h); 50 μg/ml,81% of control
same,kinase inhibition,Ret(V804L)(h); 100 μg/ml,60% of control
same,kinase inhibition,SRPK2(h); 1 μg/ml,105% of control
same,kinase inhibition,SRPK2(h); 5 μg/ml,104% of control
same,kinase inhibition,SRPK2(h); 25 μg/ml,99% of control
same,kinase inhibition,SRPK2(h); 50 μg/ml,91% of control
same,kinase inhibition,SRPK2(h); 100 μg/ml,88% of control
same,kinase inhibition,CDK5/p25(h); 1 μg/ml,93% of control
same,kinase inhibition,CDK5/p25(h); 5 μg/ml,96% of control
same,kinase inhibition,CDK5/p25(h); 25 μg/ml,103% of control
same,kinase inhibition,CDK5/p25(h); 50 μg/ml,88% of control
same,kinase inhibition,CDK5/p25(h); 100 μg/ml,77% of control
same,kinase inhibition,PKBβ(h); 1 μg/ml,104% of control
same,kinase inhibition,PKBβ(h); 5 μg/ml,97% of control
same,kinase inhibition,PKBβ(h); 25 μg/ml,68% of control
same,kinase inhibition,PKBβ(h); 50 μg/ml,43% of control
same,kinase inhibition,PKBβ(h); 100 μg/ml,31% of control
same,kinase inhibition,Lck(h); 1 μg/ml,106% of control
same,kinase inhibition,Lck(h); 5 μg/ml,111% of control
same,kinase inhibition,Lck(h); 25 μg/ml,86% of control
same,kinase inhibition,Lck(h); 50 μg/ml,83% of control
same,kinase inhibition,Lck(h); 100 μg/ml,78% of control
